# Results as given in ChEMBL document CHEMBL4138146, “A Schmidt rearrangement-mediated synthesis of novel tetrahydro-benzo[1,4]diazepin-5-ones as potential anticancer and antiprotozoal agents” (Eur J Med Chem, 2017).
# How the values were obtained:
# Assay type in all cases: functional
# SF-268 [1] = test: Growth inhibition of human SF268 cells assessed as cell growth at 10^-6 M incubated for 48 hrs by sulforhodamine B assay relative to control; conditions: SF-268, 48 h, read-out: Activity
# UACC-257 = test: Growth inhibition of human UACC257 cells assessed as cell growth at 10^-8 M incubated for 48 hrs by sulforhodamine B assay relative to control; conditions: UACC-257, 48 h, read-out: Activity
# CCRF-CEM [2] = test: Growth inhibition of human CCRF-CEM cells assessed as cell growth at 10^-7 M incubated for 48 hrs by sulforhodamine B assay relative to control; conditions: read-out: Activity
# NCI-H23 = test: Growth inhibition of human NCI-H23 cells assessed as cell growth at 10^-8 M incubated for 48 hrs by sulforhodamine B assay relative to control; conditions: NCI-H23, 48 h, read-out: Activity
# TK-10 = test: Growth inhibition of human TK10 cells assessed as cell growth at 10^-8 M incubated for 48 hrs by sulforhodamine B assay relative to control; conditions: TK-10, 48 h, read-out: Activity
# SN12C = test: Growth inhibition of human SN12C cells assessed as cell growth at 10^-7 M incubated for 48 hrs by sulforhodamine B assay relative to control; conditions: read-out: Activity
# SF-268 [3] = test: Growth inhibition of human SF268 cells assessed as cell growth at 10^-5 M incubated for 48 hrs by sulforhodamine B assay relative to control; conditions: SF-268, 48 h, read-out: Activity
# SK-OV-3 = test: Growth inhibition of human SKOV3 cells assessed as cell growth at 10^-6 M incubated for 48 hrs by sulforhodamine B assay relative to control; conditions: SK-OV-3, 48 h, read-out: Activity
# U-251 = test: Growth inhibition of human U251 cells assessed as cell growth at 10^-8 M incubated for 48 hrs by sulforhodamine B assay relative to control; conditions: U-251, 48 h, read-out: Activity
# SNB-19 = test: Growth inhibition of human SNB19 cells assessed as cell growth at 10^-6 M incubated for 48 hrs by sulforhodamine B assay relative to control; conditions: SNB-19, 48 h, read-out: Activity
# OVCAR-8 = test: Growth inhibition of human OVCAR8 cells assessed as cell growth at 10^-4 M incubated for 48 hrs by sulforhodamine B assay relative to control; conditions: OVCAR-8, 48 h, read-out: Activity
# SR = test: Growth inhibition of human SR cells assessed as cell growth at 10^-4 M incubated for 48 hrs by sulforhodamine B assay relative to control; conditions: read-out: Activity
# SNB-75 = test: Growth inhibition of human SNB75 cells assessed as cell growth at 10^-5 M incubated for 48 hrs by sulforhodamine B assay relative to control; conditions: SNB-75, 48 h, read-out: Activity
# NCI-H322M = test: Growth inhibition of human NCI-H322M cells assessed as cell growth at 10^-8 M incubated for 48 hrs by sulforhodamine B assay relative to control; conditions: read-out: Activity
# Malme-3M = test: Growth inhibition of human MALME-3M cells assessed as cell growth at 10^-8 M incubated for 48 hrs by sulforhodamine B assay relative to control; conditions: read-out: Activity
# LOX IMVI = test: Growth inhibition of human LOXIMVI cells assessed as cell growth at 10^-5 M incubated for 48 hrs by sulforhodamine B assay relative to control; conditions: read-out: Activity
# OVCAR-4 = test: Growth inhibition of human OVCAR4 cells assessed as cell growth at 10^-6 M incubated for 48 hrs by sulforhodamine B assay relative to control; conditions: OVCAR-4, 48 h, read-out: Activity
# MCF7 [4] = test: Growth inhibition of human MCF7 cells assessed as cell growth at 10^-7 M incubated for 48 hrs by sulforhodamine B assay relative to control; conditions: MCF7, 48 h, read-out: Activity
# HCT-15 [5] = test: Growth inhibition of human HCT15 cells assessed as cell growth at 10^-8 M incubated for 48 hrs by sulforhodamine B assay relative to control; conditions: HCT-15, 48 h, read-out: Activity
# MCF7 [6] = test: Growth inhibition of human MCF7 cells assessed as cell growth at 10^-4 M incubated for 48 hrs by sulforhodamine B assay relative to control; conditions: MCF7, 48 h, read-out: Activity
# SK-MEL-28 = test: Growth inhibition of human SK-MEL-28 cells assessed as cell growth at 10^-4 M incubated for 48 hrs by sulforhodamine B assay relative to control; conditions: SK-MEL-28, 48 h, read-out: Activity
# EKVX = test: Growth inhibition of human EKVX cells assessed as cell growth at 10^-6 M incubated for 48 hrs by sulforhodamine B assay relative to control; conditions: read-out: Activity
# HOP-62 = test: Growth inhibition of human HOP62 cells assessed as cell growth at 10^-4 M incubated for 48 hrs by sulforhodamine B assay relative to control; conditions: HOP-62, 48 h, read-out: Activity
# A549 = test: Growth inhibition of human A549/ATCC cells assessed as cell growth at 10^-6 M incubated for 48 hrs by sulforhodamine B assay relative to control; conditions: A549, 48 h, read-out: Activity
# MOLT-4 = test: Growth inhibition of human MOLT4 cells assessed as cell growth at 10^-5 M incubated for 48 hrs by sulforhodamine B assay relative to control; conditions: MOLT-4, 48 h, read-out: Activity
# HT-29 = test: Growth inhibition of human HT-29 cells assessed as cell growth at 10^-4 M incubated for 48 hrs by sulforhodamine B assay relative to control; conditions: HT-29, 48 h, read-out: Activity
# MDA-MB-468 = test: Growth inhibition of human MDA-MB-468 cells assessed as cell growth at 10^-7 M incubated for 48 hrs by sulforhodamine B assay relative to control; conditions: MDA-MB-468, 48 h, read-out: Activity
# CAKI-1 = test: Growth inhibition of human Caki1 cells assessed as cell growth at 10^-5 M incubated for 48 hrs by sulforhodamine B assay relative to control; conditions: CAKI-1, 48 h, read-out: Activity
# IGROV-1 = test: Growth inhibition of human IGROV1 cells assessed as cell growth at 10^-4 M incubated for 48 hrs by sulforhodamine B assay relative to control; conditions: IGROV-1, 48 h, read-out: Activity
# CCRF-CEM [7] = test: Growth inhibition of human CCRF-CEM cells assessed as cell growth at 10^-8 M incubated for 48 hrs by sulforhodamine B assay relative to control; conditions: read-out: Activity
# PC-3 = test: Growth inhibition of human PC3 cells assessed as cell growth at 10^-7 M incubated for 48 hrs by sulforhodamine B assay relative to control; conditions: PC-3, 48 h, read-out: Activity
# HCT-15 [8] = test: Growth inhibition of human HCT15 cells assessed as cell growth at 10^-7 M incubated for 48 hrs by sulforhodamine B assay relative to control; conditions: HCT-15, 48 h, read-out: Activity
# T47D = test: Growth inhibition of human T47D cells assessed as cell growth at 10^-4 M incubated for 48 hrs by sulforhodamine B assay relative to control; conditions: read-out: Activity
# HCT-15 [9] = test: Growth inhibition of human HCT15 cells assessed as cell growth at 10^-4 M incubated for 48 hrs by sulforhodamine B assay relative to control; conditions: HCT-15, 48 h, read-out: Activity
structure (smiles),measurement,setting,value
CCCCOc1nc2ccccc2cc1C1CNC(=O)c2ccccc2N1 (centres undefined),growth at 1 µM,SF-268 [1],80%
same,growth at 0.01 µM,UACC-257,97%
same,growth at 0.1 µM,CCRF-CEM [2],100%
same,growth at 0.01 µM,NCI-H23,95%
same,growth at 0.01 µM,TK-10,75%
same,growth at 0.1 µM,SN12C,90%
same,growth at 10 µM,SF-268 [3],31%
same,growth at 1 µM,SK-OV-3,80%
same,growth at 0.01 µM,U-251,99%
same,growth at 1 µM,SNB-19,95%
same,growth at 100 µM,OVCAR-8,-45%
same,growth at 100 µM,SR,-25%
same,growth at 10 µM,SNB-75,13%
same,growth at 0.01 µM,NCI-H322M,94%
same,growth at 0.01 µM,Malme-3M,88%
same,growth at 10 µM,LOX IMVI,15%
same,growth at 1 µM,OVCAR-4,85%
same,growth at 0.1 µM,MCF7 [4],91%
same,growth at 0.01 µM,HCT-15 [5],95%
same,growth at 100 µM,MCF7 [6],-40%
same,growth at 100 µM,SK-MEL-28,-57%
same,growth at 1 µM,EKVX,89%
same,growth at 100 µM,HOP-62,-59%
same,growth at 1 µM,A549,96%
same,growth at 10 µM,MOLT-4,6%
same,growth at 100 µM,HT-29,-61%
same,growth at 0.1 µM,MDA-MB-468,93%
same,growth at 10 µM,CAKI-1,25%
same,growth at 100 µM,IGROV-1,-51%
same,growth at 0.01 µM,CCRF-CEM [7],98%
same,growth at 0.1 µM,PC-3,97%
same,growth at 0.1 µM,HCT-15 [8],98%
same,growth at 100 µM,T47D,10%
same,growth at 100 µM,HCT-15 [9],-74%
